Patent publication US10995186B2, “Light-activated preparation of hydrogels” (Otago Innovation Limited, priority 2015, dated 2021)
Where two headings read alike, the source gives them in different places.

Assays:
[1] = system: Breast adenocarcinoma cells (MCF-7)
Experimental: A live/dead assay was performed after 1 day to evaluate the viability of encapsulated MCF-7 cells.

[2] = system: human articular chondrocytes (HAC)
Experimental: (§1) Articular cartilage biopsies were harvested with ethics approval from a consenting patient. The cartilage was diced into 1 to 2 mm cubes and digested overnight at 37° C. with 0.15% w/v collagenase type II in basic chondrocyte media (DMEM high glucose media supplemented with 10% FCS, 10 mM HEPES, 0.2 mM L-ascorbic acid-2-phosphate, 0.4 mM L-proline and 1% PS). The resulting suspension was filtered through a 100-μm cell strainer (BD Biosciences) to exclude the undigested tissue and centrifuged at 700-g for 4 min. The isolated chondrocytes (HAC) were cultured in basic chondrocyte media and expanded at 37° C. in a humidified 5% CO2/95% air incubator.
(§2) HAC in culture flasks were trypsinised, suspended in basic chondrocyte media, and seeded in 48 well plates at a concentration of 50 HACs/mm^2. The cells were firstly allowed to attach to the surface for 4 hours, then exposed to either 30 mW/cm^2 of UV or visible light (15 minutes), with or without 0.05 wt % of 12959 or 0.2/2 Ru/SPS (mM) respectively. […] After 1 and 7 days, the cells were visualised and quantified using the live/dead assay. […]
(§3) The cells will stain green if alive and red if dead. After staining, the gels were washed with PBS for three times before imaging them using a fluorescence microscope (Zeiss axioimager Z1). The cells were quantified using the ImageJ software and the cell viability was calculated using the equation below:

[3] = system: human articular chondrocytes (HAC); test: GAG assay of HAC encapsulated in Gel-MA hydrogels; format: cell-based; details: at 21 days
Experimental: Cell-laden Gel-MA samples were digested overnight in 200 μL of 1 mg/ml proteinase-K solution at 56° C. In order to quantify the amount of GAG retained in the gel, the digested samples were reacted with DMMB. The absorbance of the samples was then measured at 492 nm (Fluostar Galaxy BMG Labtechnology). The GAG concentrations were calculated from a standard curve constructed using known concentrations of CS-A. The amount of DNA in the gels was measured using the CyQUANT kit. The cells in the digested samples were firstly lysed and RNA degraded using the provided lysis buffer with RNase A (1.35 KU/ml) added for 1 hour at RT. GR-dye solution was then added to the samples, incubated at RT for 15 minutes then the fluorescence was measured (Fluostar Galaxy BMG Labtechnology). A standard curve was constructed using the DNA provided in the kit.

[4] = system: human articular chondrocytes (HAC); test: Photo-toxicity and radical toxicity evaluation, HAC on 2D surfaces; details: 7 days post treatment, light plus initiator
Experimental: as §1, §2, §3

[5] = Deformation of thickness (oxygen inhibition) of Gel-MA/collagen hydrogel; format: physicochemical; details: Gel-MA+Collagen 1 discs
Experimental: The constructs were then irradiated for 15 minutes in the presences of a photo-initiator and a light source, where the surfaces of the constructs were exposed to oxygen. In a first experiment, the light intensity was kept at 3 mW/cm^2 whereas the photo-initiator concentrations were varied from 0.05 to 0.5 wt % and 0.2/2 mM to 2/20 mM for 12959 and Ru/SPS respectively. In a second experiment the light intensity was varied from 3 to 100 mW/cm^2 while keeping the photo-initiator concentrations constant at 0.05 wt % and 0.2/2 mM for 12959 and Ru/SPS respectively. The level of oxygen inhibition was characterised as the deformation of thickness before (to) and after equilibrium swelling (ts). The deformation of thickness is given by the equation: Deformation of thickness=[(t0−ts)/t0]×100.

[6] = system: normal human foreskin fibroblasts (HFF); test: cells; details: Fibroblast, 96 h
[7] = system: human ovarian adenocarcinoma cell lines (SKOV3); test: cells; details: SK-OV-3, 96 h
Experimental: (§4) Experiments were carried out with human ovarian adenocarcinoma cell lines (SKOV3) and normal human foreskin fibroblasts (HFF). […] Cells were expanded at 37° C. in a humidified 5% CO2/95% air incubator and media was changed twice a week.
(§5) Each cell encapsulated microspheres was then transferred to well in a 96-well polystyrene plate (Falcon). 150 μL of cell culture media was then pipetted into the wells and placed in the incubator and the media was changed twice a week.

[8] = system: assembled cancer construct; test: Darkfield images of doxorubicin-treated cancer construct; format: cell-based, human
Source text: To print the assembled construct (n=3) a layer-by-layer approach was opted so as to not limit the height of the scaffold that can be constructed using the system. In this scheme the first layer of the scaffold (8 layers of fibre strands) was printed (as described earlier) and then 4 (2×2 fashion) live microspheres were inserted into the pores of the 3D plotted scaffold. This process was repeated to generate a second layer of the scaffold (4 layers of fibre strands) and then 4 more microspheres were inserted into the scaffold. But for the manually assembled scaffold, the whole scaffold was printed at once and the micro-tissues were inserted manually into pre-printed scaffolds in a similar format to the ones assembled with the automated system.
The cytotoxicity test was used to evaluate in vitro antitumor activity of Doxorubicin on cells in 2D, microspheres and assembled cancer construct. […] On day 1 of forming the microspheres, SKOV3, HFF and co-culture cancer constructs were manually assembled and transferred to a 24-well plate with 1.2 ml of media per well. On day 7, for the cytotoxicity test on 2D model, SKOV3s, HFFs and co-culture (75% SKOV3 and 25% HFF) cells were seeded onto a 48-well plate at 30,000 cells and 200 μl of media per well. […] Media with 5% FBS containing the specific concentration of drug was changed every 2 days. […]

[9] = system: co-culture (75% SKOV3 and 25% HFF) cells; test: cells; details: Homo sapiens, 96 h
[10] = system: co-culture (75% SKOV3 and 25% HFF) cells
[11] = system: human ovarian adenocarcinoma cell lines (SKOV3)
Experimental: as §4, §5

[12] = system: normal human foreskin fibroblasts (HFF); details: Fibroblast
[13] = read-out: IC50 Assembled construct

In the case of CC(C)(O)C(=O)c1ccc(OCCO)cc1 [UV+I2959, 1-[4-(2-hydroxyethoxy)-phenyl]-2-hydroxy-2-methyl-1-propane-1-one], the cell viability [1] is reported as 50%, the “number of cells attached” value [2] is reported as 20 HACs/mm^2 and the GAG/gel [3] is reported as 0.1 µg/mg. For the same compound, the “cell morphology (live-dead stain)” value [4] was “the cells became rounded”, the “reduction of thickness (deformation of thickness)” value ([5]; 3 mW/cm^2, 0.05 wt % I2959 or 0.2/2 Ru/SPS (mM)) was about 55% and the deformation of thickness ([5]; 3 mW/cm^2, 0.5 wt % I2959 or 2/20 Ru/SPS (mM), controls without oxygen <10%) was “comparable to the controls”.
Work on COc1cccc2c1C(=O)c1c(O)c3c(c(O)c1C2=O)C[C@@](O)(C(=O)CO)C[C@@H]3O[C@H]1C[C@H](N)[C@H](O)[C@H](C)O1 [doxorubicin, Doxorubicin] yielded an IC50 ([6]; read-out: IC50 2D) of 160 nM, an IC50 [6, 13] of 3810 nM and an IC50 ([6]; read-out: IC50 Microspheres) of 180 nM. For the same compound, the IC50 ([7]; read-out: IC50 2D) was 50 nM, the IC50 [7, 13] was 2410 nM and the IC50 ([7]; read-out: IC50 Microspheres) was 150 nM. For the same compound, the “tissue present in cancer construct (darkfield images)” value ([8]; 1 μM drug) was “atrophy of the tissue”, the “tissue present in cancer construct (darkfield images)” value ([8]; 10 μM drug) was “almost no tissue present” and the IC50 ([9]; read-out: IC50 2D) was 80 nM. For the same compound, the IC50 [9, 13] was 5560 nM, the IC50 ([9]; read-out: IC50 Microspheres) was 290 nM and the “Fold change in IC50 Assembled construct/microspheres” value [10] was 19.34. For the same compound, the “Fold change in IC50 Assembled construct/monolayer” value [10] was 70.14, the “Fold change in IC50 Microspheres/monolayer” value [10] was 3.63 and the “Fold change in IC50 Assembled construct/microspheres” value [11] was 16.33. For the same compound, the “Fold change in IC50 Assembled construct/monolayer” value [11] was 48.32, the “Fold change in IC50 Microspheres/monolayer” value [11] was 2.96 and the “Fold change in IC50 Assembled construct/microspheres” value [12] was 21.41. For the same compound, the “Fold change in IC50 Assembled construct/monolayer” value [12] was 24.32 and the “Fold change in IC50 Microspheres/monolayer” value [12] was 1.14.
